pIC50: −log10 of the molar value. Calls of active or inactive are those of the source. No cut-off for these calls is given here.

The nature of data set [1]: Growth inhibition of human U373 cells by MTT assay. It counts as functional, cell-based, U-373MG ATCC. The conditions noted are these: U373 MG. On the technique in general: Formazan colour is commonly taken as a measure of viable cells.
A short description of data set [2]: Growth inhibition of mouse B16F10 cells by MTT assay. Type of data set: functional, cell-based. The conditions noted are these: B16-F10.
Data set [3] relates to A549. Nature of the data set: Growth inhibition of human A549 cells by MTT assay. It counts as functional, cell-based.
Data set [4] concerns SK-MEL-28. Nature of the data set: Growth inhibition of human SK-MEL-28 cells by MTT assay. It counts as functional, cell-based.
Data set [5] can be described thus: Growth inhibition of human Hs683 cells by MTT assay. It counts as functional, cell-based. The conditions noted are these: Hs 683.
For data set [6], the system named is MCF7. Nature of the data set: Growth inhibition of human MCF7 cells by MTT assay. Type of data set: functional, cell-based.
Data set [7] in a line: Chemical stability of the compound in MEM and RPMI assessed as compound recovery after 72 hrs in presence of foetal calf serum. Type of data set: physicochemical. The conditions noted are these: cattle, MEM and RPMI cell culture media with foetal calf serum; read-out: Drug recovery.
The subject of data set [8] is U-373MG ATCC. Nature of the data set: Cytotoxicity against human U373 cells at 17 uM after 72 hrs by video microscopic analysis. It counts as functional, cell-based.
The test system of data set [9] is U-373MG ATCC. Nature of the data set: Cytotoxicity against human U373 cells at 8 uM after 72 hrs by video microscopic analysis. It counts as functional, cell-based.
In data set [10] the test system is U-373MG ATCC. Nature of the data set: Cytotoxicity against human U373 cells at 5 uM after 72 hrs by video microscopic analysis. It counts as functional, cell-based.

By pIC50 is commonly meant −log10 of the IC50, conventionally taken in molar units. Higher therefore signals a small IC50. Turning to `CC(C)=CCC/C(C)=C/COc1cccc2c1C(=O)C=C(C)C2=O`, the pIC50 was 4.23 in data set [1]; 4.52 in data set [2]; 4.64 in data set [3]; 4.51 in data set [4]; 4.66 in [5]; 4.40 in data set [6].

`COc1cccc2c1C(=O)C=CC2=O`: the negative-log IC50 (pIC50) in data set [1] was 5.05; in data set [2], 5.00; in [3] it was 5.05; in data set [4], 4.52; in [5], 5.22; in data set [6], 4.41.

Regarding `CCOc1cccc2c1C(=O)C=C(C)C2=O`, the pIC50 in data set [1] was 4.62; in data set [2] it was 5.52; in data set [3] it was 5.52; in [4] it was 5.52; in data set [5] it was 5.70; in data set [6], 5.22.

Turning to `CCOc1cccc2c1C(=O)C=CC2=O`, the negative logarithm of the IC50 (pIC50) is 4.54 in data set [1]; 5.30 in [2]; 4.72 in data set [3]; 5.05 in [4]; 4.64 in data set [5]; 4.62 in data set [6].

For the compound `CCCCCCCC/C=C\CCCCCCCC(=O)Oc1cccc2c1C(=O)C=CC2=O`, the negative-log IC50 (pIC50) is 4.04 in [1]; 4.21 in data set [2]; 4.11 in data set [3]; 4.17 in data set [4]; 4.11 in [5]; 4.21 in data set [6]. Further, the remaining at 72 h in data set [7] was over 95%.

On to `CCCCCCCCCCCCCCCCCC(=O)Oc1cccc2c1C(=O)C=C(C)C2=O`, for which the pIC50 was under 4.00 in [1]; 4.34 in data set [2]; under 4.00 in data set [3]; 4.04 in [4]; under 4.00 in data set [5]; under 4.00 in [6]. For the same compound, the remaining at 72 h in data set [7] was over 95%.

For the compound `CC(C)=CCOc1cccc2c1C(=O)C=C(C)C2=O`, the pIC50 is 5.15 in data set [1]; 6.00 in data set [2]; 5.40 in data set [3]; 5.15 in data set [4]; 5.52 in data set [5]; 5.52 in data set [6].

On to `O=C1C=CC(=O)c2c(O)cccc21` [JUGLONE], for which the negative logarithm of the IC50 (pIC50) in [1] is 4.77; in data set [2], 5.22; in data set [3], 5.15; in data set [4], 5.15; in data set [5], 5.15; in data set [6] it was 4.89. The outcome in [8] was Active.

For `C=CCOc1cccc2c1C(=O)C=CC2=O`, the pIC50 in data set [1] was 4.49; in data set [2], 5.40; in [3] it was 4.59; in data set [4], 4.62; in data set [5], 4.72; in data set [6], 4.68.

For the compound `CCCCCCCCCCCCCCCC(=O)Oc1cccc2c1C(=O)C=C(C)C2=O`, the pIC50 is 4.32 in data set [1]; 4.66 in [2]; 4.52 in data set [3]; 4.14 in data set [4]; 4.48 in [5]; 4.24 in data set [6]. The remaining at 72 h in data set [7] was over 95%.

For the compound `CCCCCCCCCCCC(=O)Oc1cccc2c1C(=O)C=C(C)C2=O`, the negative-log IC50 (pIC50) in [1] was 4.80; in data set [2] it was 5.52; in [3], 4.66; in data set [4] it was 4.11; in data set [5], 4.77; in data set [6] it was 4.54. In addition, in [7], the remaining at 72 h is over 95%.

Turning to `CCCCCCCCCCCCCCCCCC(=O)Oc1cccc2c1C(=O)C=CC2=O`, the pIC50 in data set [1] is 4.19; in [2], 4.72; in [3] it was 4.17; in data set [4], 4.74; in data set [5], 4.17; in data set [6] it was 4.52. In addition, the remaining at 72 h in data set [7] was over 95%.

Turning to `CCCCCCCCCCCCCC(=O)Oc1cccc2c1C(=O)C=C(C)C2=O`, the negative logarithm of the IC50 (pIC50) was 4.80 in [1]; 5.52 in [2]; 4.92 in data set [3]; 4.74 in data set [4]; 5.05 in [5]; 4.66 in data set [6]. In [7], the remaining at 72 h was over 95%.

For the compound `CC(=O)Oc1cccc2c1C(=O)C=CC2=O`, the pIC50 in data set [1] is 5.10; in data set [2], 5.15; in data set [3] it was 4.64; in data set [4] it was 4.64; in data set [5], 4.64; in data set [6], 5.10. For the same compound, the remaining at 72 h in data set [7] was over 95%. Moreover, the outcome in data set [9] was Active.

With `COc1cccc2c1C(=O)C=C(C)C2=O`, the pIC50 is 5.30 in [1]; 5.70 in data set [2]; 5.40 in data set [3]; 5.30 in [4]; 5.52 in [5]; 5.30 in data set [6]. Moreover, the result in data set [10] was Active.

Take `CC(C)=CCOc1cccc2c1C(=O)C=CC2=O`: the negative-log IC50 (pIC50) in data set [1] was 4.82; in [2], 5.15; in data set [3], 5.22; in data set [4], 5.30; in [5], 5.15; in data set [6], 4.80.

As to `CC1=CC(=O)c2c(O)cccc2C1=O` [PLUMBAGIN], the pIC50 in [1] was 5.30; in data set [2] it was 6.00; in data set [3], 5.52; in data set [4] it was 5.30; in [5], 5.40; in [6], 5.52. In addition, in data set [10], the outcome was Active.

As to `CC(=O)Oc1cccc2c1C(=O)C=C(C)C2=O`, the pIC50 in data set [1] was 5.30; in data set [2] it was 6.40; in data set [3], 5.30; in [4] it was 5.52; in [5], 5.30; in data set [6] it was 5.40. Besides, the remaining at 72 h in data set [7] is over 95%.

For `C=CCOc1cccc2c1C(=O)C=C(C)C2=O`, the negative logarithm of the IC50 (pIC50) was 5.52 in [1]; 6.00 in data set [2]; 5.52 in data set [3]; 5.52 in data set [4]; 5.52 in data set [5]; 5.52 in data set [6].

For `CCCCCCCCCCCCCCCC(=O)Oc1cccc2c1C(=O)C=CC2=O`, the pIC50 in data set [1] is under 4.00; in [2] it was 4.28; in data set [3], under 4.00; in [4] it was under 4.00; in [5] it was under 4.00; in data set [6] it was 4.07. Besides, in data set [7], the remaining at 72 h was over 95%.

Regarding `CC(C)=CCC/C(C)=C/COc1cccc2c1C(=O)C=CC2=O`, the negative logarithm of the IC50 (pIC50) is under 4.00 in [1]; under 4.00 in [2]; 4.17 in data set [3]; under 4.00 in data set [4]; 4.17 in data set [5]; under 4.00 in data set [6].

For the compound `CCCCCCCC/C=C\CCCCCCCC(=O)Oc1cccc2c1C(=O)C=C(C)C2=O`, the pIC50 in [1] was 4.21; in data set [2], 4.66; in data set [3], 4.44; in data set [4], 4.51; in data set [5] it was 4.46; in data set [6], 4.24. Also, the remaining at 72 h in data set [7] was over 95%.

In the case of `CCCCCCCCCCCC(=O)Oc1cccc2c1C(=O)C=CC2=O`, the negative-log IC50 (pIC50) is 4.74 in data set [1]; 5.10 in data set [2]; 4.54 in data set [3]; 4.82 in data set [4]; 4.54 in data set [5]; 4.62 in data set [6]. Besides, in data set [7], the remaining at 72 h is over 95%.

With `CCCCCCCCCCCCCC(=O)Oc1cccc2c1C(=O)C=CC2=O`, the pIC50 in [1] is 4.52; in [2] it was 4.57; in data set [3], 4.44; in data set [4], 4.48; in data set [5] it was 4.44; in data set [6], 4.52. In addition, the remaining at 72 h in [7] is over 95%.
